Laboratory results taken from patent publication US12414996B2, “Organic anion transporting peptide-based cancer imaging and therapy” (Da Zen Theranostics, Inc., priority 2014, dated 2025).

Key:
cancer = assay: In vivo cancer targeting of heptamethine cyanine dye derivatives (Nuclear/NIR imaging); details: tumor specific uptake by Nuclear/NIR imaging
Excerpt: The inventor synthesized several heptamethine cyanine dye derivatives (Table 1) and evaluated the tumor specific uptake using Nuclear/NIR imaging.

PC3 = assay: Tumor cell growth inhibition IC50, PC3; assay type: cell-based; details: Prostate Cancer cell line PC3; read-out: Half maximal inhibitory concentration (IC50) PC3
Excerpt: (§1) In addition to DZ-1-Gem, some agents of the invention may include other antitumor active moieties, such as cisplatin. For example, the tumor cell growth inhibition activities of DZ-1 linked with cisplatin (“DZ-1-cisplatin”) were compared with those of cisplatin alone in various tumor cells, including prostate, breast, renal, kidney, and lung cancer cell lines.

H358 = assay: Tumor cell growth inhibition IC50, H358; assay type: cell-based; details: Lung Cancer cell line H358; read-out: Half maximal inhibitory concentration (IC50) H358
Excerpt: as §1

Hep G2 = assay: Tumor cell growth inhibition IC50, Hep G2; assay type: cell-based; details: Hepatic Cancer cell line Hep G2; read-out: Half maximal inhibitory concentration (IC50) Hep G2
C4-2B [1] = assay: Tumor cell growth inhibition IC50, C4-2B; assay type: cell-based; details: Prostate Cancer cell line C4-2B; read-out: Half maximal inhibitory concentration (IC50) C4-2B
Excerpt: as §1

LNCaP [2] = assay: Tumor cell growth inhibition IC50, LNCaP; assay type: cell-based; details: Prostate Cancer cell line LNCaP; read-out: Half maximal inhibitory concentration (IC50) LNCaP
Excerpt: as §1

ACHN = assay: Tumor cell growth inhibition IC50, ACHN; assay type: cell-based; details: Renal Cancer cell line ACHN; read-out: Half maximal inhibitory concentration (IC50) ACHN
Excerpt: as §1

LNCaP [3] = assay: Cytotoxicity (IC50) on cancer cell growth in vitro, LNCaP; assay type: cell-based, human; details: LNCaP prostate cancer cells in culture
C4-2B [4] = assay: Cytotoxicity (IC50) on cancer cell growth in vitro, C4-2B; assay type: cell-based, human; details: C4-2B prostate cancer cells in culture
PC-3 = assay: Cytotoxicity (IC50) on cancer cell growth in vitro, PC-3; assay type: cell-based, human; details: PC-3 prostate cancer cells in culture
C4-2 = assay: Cytotoxicity (IC50) on cancer cell growth in vitro, C4-2; assay type: cell-based, human; details: C4-2 prostate cancer cells in culture
MiaPaCa II = assay: Cytotoxicity (IC50) on cancer cell growth in vitro, MiaPaCa II; assay type: cell-based, human; details: MiaPaCa II pancreatic cancer cells in culture
BX-PC3 = assay: Cytotoxicity (IC50) on cancer cell growth in vitro, BX-PC3; assay type: cell-based, human; details: BX-PC3 pancreatic cancer cells in culture
pancreatic PDX tumors = assay: Uptake of NIR dye by pancreatic PDX tumors implanted in mouse subrenal capsules; assay type: in vivo; details: subrenal capsule implant
Excerpt: (A) NIR fluorescent imaging of mouse bearing human pancreatic PDX tumors in subrenal capsules (excitation: 783 nm; […] nm) (B) Ex vivo bright field and NIR fluorescent imaging of pancreatic PDX tumors in the kidney capsules and other organs harvested from mouse and (C) the NIR fluorescent intensity was quantified for the tumor and for each organ (total radiance efficiency [p/s]/[μW/cm^2]) (D) Fluorescent microscopy of DAPI, NIR, and merged images of frozen section of pancreatic PDX tumor in the kidney capsule. White dash line outlines the mouse kidney and red dash line outlines the pancreatic PDX tumor.
The uptakes of NIR dye MHI-148, by pancreatic patient-derived xenografts (PDX) tumors implanted in mouse subrenal capsules were investigated. […] White dash line outlines the mouse kidney and red dash line outlines the pancreatic PDX tumor.

prostate PDX tumors = assay: Uptake of NIR dye by prostate PDX tumors implanted in mouse subrenal capsules; assay type: in vivo; details: i.p., imaging after 48 hours, excitation 783 nm, emission 840 nm
Procedure: (A) Representative NIR fluorescence imaging of control mouse with no tumor and mouse with sham-operation and PCa implantation in the subrenal capsules of the kidneys. Mice were injected i.p with NIR dye, MHI-148, 48 hours before fluorescence imaging at excitation of 783 nm and emission of 840 nm. […] (B) Representative ex vivo NIR fluorescence imaging of kidneys with sham operation and PCa tumor implantations. NIR fluorescence signal was only detected in the growing PCa tumors implanted in the subrenal capsule of the right kidney. (C) Fluorescent microscopy of DAPI, NIR, and merged images of frozen sections of the human PCa tumor and the mouse kidney from the subrenal xenograft model (200× magnification) (D) Representative H&E staining of the PCa tumors implanted in the mouse kidney capsule (40× magnification; inlet: 400× magnification).
The uptakes of NIR dye MHI-148 by prostate PDX tumors implanted in mouse subrenal capsules were investigated. […] Mice were injected i.p with NIR dye, MHI-148. After 48 hours, fluorescence imaging was performed with an excitation of 783 nm and emission of 840 nm. […] NIR fluorescence signal was only detected in the growing prostate cancer tumors implanted in the subrenal capsule of the right kidney.

[5] = test system: prostate cancer PC3 tumors; assay: Uptake by prostate cancer PC3 tumors in mice (NIR imaging); assay type: in vivo; details: for uptake by PC3 tumor in mice: 100 nmole i.p., imaged 48 hours thereafter
MCF-7 = assay: Tumor cell growth inhibition IC50, MCF-7; assay type: cell-based; details: Breast Cancer cell line MCF-7; read-out: Half maximal inhibitory concentration (IC50) MCF-7
Excerpt: as §1

CW22Rv1 cells = details: 5 μM, 10 min
Procedure: (§2) (A) Uptake of DZ-1-Gem (5 μM, 10 min) by U87 and CW22Rv1 cells. IR-783 was used a positive control in parallel. Scale bar represents 50 μm. (B) Proliferation of U87 cells treated with vehicle, gemcitabine (200 nM) or DZ-1-Gem (200 nM) for 4 consecutive days.
(§3) IR-783 was used a positive control in parallel. Scale bar represents 50 μm.

U87 cells [6] = details: 5 μM, 10 min
Procedure: as §2, §3

U87 cells [7] = details: 200 nM, 4 consecutive days
Procedure: as §2
(§4) In these experiments, cells were fixed and stained with crystal violet, and OD value at the wavelength of 595 nm was determined (n=5 for each experimental group, mean±SEM) *p<0.05, **p<0.01.

intracranial U87 tumor = details: 10 mg/kg, twice a week
Procedure: as §2, §4

MIAPaCa tumors = details: 10 mg/kg; subcutaneous luc-tagged MIAPaCa tumors; in vivo and ex vivo imaging
pancreatic MIAPaCa cells = details: DZ-1-gemcitabine 10 mg/kg vs gemcitabine 2.5 mg/kg, twice a week i.p.
Excerpt: (§5) Arrows indicate the onset of treatments. * p<0.05; ** p<0.01; *** p<0.001.
as §5

[8] = test system: prostate cancer PC3 cells; details: DZ-1-gemcitabine 10 mg/kg vs gemcitabine 2.5 mg/kg, twice a week i.p.
Excerpt: as §5, §5

[9] = test system: CW22Rv1 prostate tumor brain metastases; assay: Survival of mice bearing CW22Rv1 prostate tumor brain metastases (Kaplan-Meier); assay type: in vivo; details: 10 mg/kg, twice a week; p<0.001 (log-rank test) vs vehicle
Excerpt: as §3

Question: Which Cancer targeting (cancer) does the source give for `CC1(C)C(/C=C/C2=C(Cl)C(=C/C=C3/N(CCCCCC(=O)O)c4ccccc4C3(C)C)/CCC2)=[N+](CCCCS(=O)(=O)[O-])c2ccccc21` here?
Answer: Positive

Question: Which Cancer targeting (cancer) does the source give for `CC1(C)C(/C=C/C2=C(SCCC(=O)Nc3ccn(C4OC(CO)C(O)C4(F)F)c(=O)n3)C(=C/C=C3/N(CCCCS(=O)(=O)O)c4ccccc4C3(C)C)/CCC2)=[N+](CCCCS(=O)(=O)[O-])c2ccccc21` (stereo not drawn) here?
Answer: Negative

Question: Which Cancer targeting (cancer) does the source give for `CC1(C)C(/C=C/C2=C(Cl)C(=C/C=C3/N(CCCCCC(=O)O)c4ccccc4C3(C)C)/CCC2)=[N+](CCCCCC(=O)O)c2ccccc21` here?
Answer: Positive

Question: For `CC1(C)C(/C=C/C2=C(NCCCC(=O)O)C(=C/C=C3/N(CCCCS(=O)(=O)O)c4ccccc4C3(C)C)/CCC2)=[N+](CCCCS(=O)(=O)[O-])c2ccccc21`, which Cancer targeting (cancer) is on record?
Answer: Negative

Question: For `CC1(C)C(/C=C/C2=C(Cl)C(=C/C=C3/N(CCCCS(=O)(=O)O)c4ccccc4C3(C)C)/CCC2)=[N+](CCCCS(=O)(=O)[O-])c2ccccc21`, which Cancer targeting (cancer) is on record?
Answer: Positive

Question: How did the Cancer targeting (cancer) turn out when `CC1(C)C(/C=C/C2=C(Cl)C(=C/C=C3/N(CCCCCC(=O)NCCCCC(NC(=O)CN4CCN(CC(=O)O)CCN(CC(=O)O)CCN(CC(=O)O)CC4)C(=O)O)c4ccccc4C3(C)C)/CCC2)=[N+](CCCCS(=O)(=O)[O-])c2ccccc21` (stereo not drawn) was run?
Answer: Positive

Question: How did the Cancer targeting (cancer) turn out when `CC1(C)C(/C=C/C2=C(Cl)C(=C/C=C3/N(CCCCCC(=O)Nc4ccn(C5OC(CO)C(O)C5(F)F)c(=O)n4)c4ccccc4C3(C)C)/CCC2)=[N+](CCCCS(=O)(=O)[O-])c2ccccc21` (stereo not drawn) was run?
Answer: Positive

Question: Which Cancer targeting (cancer) does the source give for `CC1(C)C(/C=C/C2=C(Cl)C(=C/C=C3/N(CCCCCC(=O)Nc4ccc(CC5CN(CC(=O)O)CCN(CC(=O)O)CCN5CC(=O)O)cc4)c4ccccc4C3(C)C)/CCC2)=[N+](CCCCS(=O)(=O)[O-])c2ccccc21` (stereo not drawn) here?
Answer: Positive

Question: `CC1(C)C(/C=C/C2=C(SCCCC(=O)O)C(=C/C=C3/N(CCCCS(=O)(=O)O)c4ccccc4C3(C)C)/CCC2)=[N+](CCCCS(=O)(=O)[O-])c2ccccc21` was tested. Which Cancer targeting (cancer) did it give?
Answer: Negative

Question: Which Cancer targeting (cancer) does the source give for `CCC(=[N][Pt]([NH2])([NH2])[Cl])N(C)CCNC(=O)CCCCCN1/C(=C/C=C2\CCCC(/C=C/C3=[N+](CCCCS(=O)(=O)[O-])c4ccccc4C3(C)C)=C2Cl)C(C)(C)c2ccccc21` here?
Answer: Positive

Question: How did the IC50 (PC3) turn out when `N.N.[Cl][Pt][Cl]` [Cisplatin, reference compound] was run?
Answer: > 50 µM

Question: What about the IC50 (H358) of the same molecule?
Answer: > 50 µM

Question: And the IC50 (Hep G2)?
Answer: > 50 µM

Question: And the IC50 (C4-2B [1])?
Answer: > 50 µM

Question: What about the IC50 (LNCaP [2]) of the same molecule?
Answer: > 50 µM

Question: And the IC50 (ACHN)?
Answer: 28.7 µM

Question: What does the source list for `C#CCN(C)CCCOc1ccc(Cl)cc1Cl` [Clorgyline]?
Answer: IC50 (LNCaP [3]): 81 µM; IC50 (C4-2B [4]): 114 µM; IC50 (PC-3): 120 µM

Question: Which results are given for `CC(=O)O[C@@]12CO[C@@H]1C[C@H](O)[C@@]1(C)C(=O)[C@H](O)C3=C(C)[C@@H](OC(=O)[C@H](O)[C@@H](NC(=O)OC(C)(C)C)c4ccccc4)C[C@@](O)([C@@H](OC(=O)c4ccccc4)[C@H]21)C3(C)C` [Docetaxel]?
Answer: IC50 (C4-2; Homo sapiens): 3.2 µM; IC50 (LNCaP [3]; Homo sapiens): 0.01 µM; IC50 (MiaPaCa II; Homo sapiens, MIA PaCa-2): 0.006 µM; IC50 (PC-3; Homo sapiens): 0.33 µM; IC50 (BX-PC3; Homo sapiens, BXPC-3): 0.007 µM

Question: Which results are given for `Nc1ccn([C@@H]2O[C@H](CO)[C@@H](O)C2(F)F)c(=O)n1` [Gemcitabine]?
Answer: IC50 (C4-2; Homo sapiens): 0.085 µM; IC50 (LNCaP [3]; Homo sapiens): 0.25 µM; IC50 (MiaPaCa II; Homo sapiens, MIA PaCa-2): 0.022 µM; IC50 (PC-3; Homo sapiens): 0.38 µM; IC50 (BX-PC3; Homo sapiens, BXPC-3): 0.135 µM

Question: Which “uptake of NIR dye in pancreatic PDX tumor vs mouse kidney (fluorescent microscopy of frozen section)” value (pancreatic PDX tumors) does the source give for `CC1(C)C(/C=C/C2=C(Cl)C(=C/C=C3\N(CCCCCC(=O)O)c4ccccc4C3(C)C)/CCC2)=[N+](CCCCCC(=O)O)c2ccccc21` [MHI-148] here?
Answer: Only the pancreatic tumor uptakes the NIR dye

Question: And the “NIR fluorescence signal (uptake) in prostate PDX tumor vs sham-operated kidney and control mouse” value (prostate PDX tumors)?
Answer: Only the prostate cancer tumor implanted in the subrenal capsule of the right kidney showed the NIR fluorescence signal

Question: Which results are given for “IR-783-N1-methylethylenediamine-cisplatin [DZ-1-cisplatin]”?
Answer: IC50 (PC3): 7.57 µM; IC50 (H358): 4.95 µM; IC50 (Hep G2): > 50 µM; IC50 (C4-2B [1]): 15.9 µM; uptake by PC3 tumor in mice [5]: accumulate only in the tumor cells, but not in the normal organs; IC50 (LNCaP [2]): 21.6 µM; IC50 (MCF-7): 13.1 µM; IC50 (ACHN): 4.03 µM

Question: With IR-783-gemcitabine [DZ-1-gemcitabine] as the molecule, how does the IC50 (C4-2) read?
Answer: 0.093 µM

Question: What about the “uptake by CW22Rv1 cells” value (CW22Rv1 cells) of the same molecule?
Answer: readily taken up

Question: What about the “uptake by U87 cells” value (U87 cells [6]) of the same molecule?
Answer: readily taken up

Question: What about the “inhibition of U87 cell proliferation” value (U87 cells [7]) of the same molecule?
Answer: as effective as Gem

Question: What about the “intracranial U87 tumor growth (bioluminescence)” value (intracranial U87 tumor) of the same molecule?
Answer: effectively suppressed tumor growth, resulting in no bioluminescence

Question: And the “uptake by MIAPaCa tumors vs normal organs” value (MIAPaCa tumors)?
Answer: specifically by prostate and pancreatic tumors but not normal organs

Question: And the IC50 (LNCaP [3])?
Answer: 0.34 µM

Question: What about the “uptake by PC3 tumor in mice” value [5] of the same molecule?
Answer: accumulate only in the tumor cells, but not in the normal organs

Question: What about the “uptake by PC3 tumors vs normal organs” value ([5]; 10 mg/kg, subcutaneous luc-tagged PC3 tumors, in vivo and ex vivo imaging) of the same molecule?
Answer: specifically by prostate and pancreatic tumors but not normal organs

Question: And the IC50 (MiaPaCa II)?
Answer: 0.085 µM

Question: And the “prevention and inhibition of subcutaneous MIAPaCa tumor growth (tumor volume)” value (pancreatic MIAPaCa cells)?
Answer: more effective than Gemcitabine

Question: What about the “prevention and inhibition of subcutaneous PC3 tumor growth (tumor volume)” value [8] of the same molecule?
Answer: more effective than Gemcitabine

Question: And the survival of mice [9]?
Answer: significantly improved survival

Question: And the IC50 (PC-3)?
Answer: 0.42 µM

Question: And the IC50 (BX-PC3)?
Answer: 0.23 µM
